From US12090153B2, “Combination therapy for the treatment of uveal melanoma” (The Board of Trustees of the University of Illinois, priority 2018, dated 2024)

Tests used:
[1] = test system: UM cell line MEL270; experiment: Screen of PAC-1 in combination with kinase inhibitors, percent cell death; format: cell-based; details: MEL270, 72-hour incubation, single agents and combination at the same concentrations (FIG. 2)
From the text: FIG. 2. […] These three types of fusion proteins are key driver alterations in multiple cancer types.

[2] = GLP dog PK/preclinical PAC-1 toxicity studies; format: in vivo
[3] = PAC-1 clinical study in human patients, safety; format: in vivo
Procedure: PAC-1 has been dosed in 34 human patients through 7 dose levels of PAC-1 (range: 75-750 mg). Two patients progressed during the first cycle of PAC-1 therapy. Thirty-two patients received PAC-1 for at least 2 dosing cycles (a cycle is 21 days of daily dosing followed by 7 days of no drug). As a result of stable disease responses, six patients received PAC-1 for 4 cycles, three patients received PAC-1 for 6 cycles and two patients received PAC-1 for 10 cycles.

[4] = test system: MEL285; experiment: PAC-1 single agent IC50 in uveal melanoma cell line, 72-hour incubation; format: cell-based; details: MEL285, GNAQ/11 WT, error s.e.m.
From the text: (§1) UM cell lines express procaspase-3 (FIG. 1), and PAC-1 has activity as a single agent in a panel of UM cell lines (Table D). [table]

[5] = test system: OMM2.5; experiment: as above; format: cell-based; details: OMM2.5, GNAQ Mutant Q209P, error s.e.m.
From the text: as §1

[6] = test system: MEL202; experiment: as above; format: cell-based; details: MEL202, GNAQ Mutant Q209L, R210K, error s.e.m.
From the text: as §1

[7] = test system: MEL270; experiment: as above; format: cell-based; details: MEL270, GNAQ Mutant Q209P, error s.e.m.
From the text: as §1

[8] = test system: 92.1; experiment: as above; format: cell-based; details: 92.1, GNAQ Mutant Q209L, error s.e.m.
From the text: as §1

[9] = test system: MEL290; experiment: as above; format: cell-based; details: MEL290, GNAQ/11 WT, error s.e.m.
From the text: as §1

[10] = test system: OMM1; experiment: as above; format: cell-based; details: OMM-1, OMM1, GNA11 Mutant Q209L, error s.e.m.
From the text: as §1

[11] = cited from earlier work
[12] = test system: ROS1-rearranged lung cancers; details: cited from earlier work

SMILES	Percent cell death [1] [%]	Brain tissue findings [2]	serious adverse events (SAEs) associated with PAC-1 administration ([3]; 34 human patients, 7 dose levels, 75-750 mg)	neurotoxicity associated with PAC-1 dosing ([3]; neurological and neurocognitive assessments through dose level 7 (750 mg))	IC50 [4] [µM]	IC50 [5] [µM]	IC50 [6] [µM]	IC50 [7] [µM]	IC50 [8] [µM]	IC50 [9] [µM]	IC50 [10] [µM]	treatment-related adverse events of any grade: myalgias ([11]; n=27/119) [%]	treatment-related adverse events of any grade: nausea ([11]; n=33/119) [%]	treatment-related adverse events of any grade: paresthesias ([11]; n=34/119) [%]	treatment-related adverse events of any grade: dysgeusia ([11]; n=50/119) [%]	treatment-related adverse events of any grade: fatigue/asthenia ([11]; n=55/119) [%]	Disease control and progression-free survival [12]
C=CCc1cccc(/C=N/NC(=O)CN2CCN(Cc3ccccc3)CC2)c1O [PAC-1]	~16	brain tissue changes observed	No serious adverse events	no conclusive signs of neurotoxicity	7.4 ± 2.6	9.5 ± 0.5	10.3 ± 0.2	9.8 ± 0.6	3.6 ± 0.7	11.7 ± 1.2	4 ± 0.8						
CN1CCN(c2ccc(C(=O)Nc3n[nH]c4ccc(Cc5cc(F)cc(F)c5)cc34)c(NC3CCOCC3)c2)CC1 [entrectinib]	~16											23	28	29	42	46	durable disease control and prolonged progression-free survival
